Reference: patent publication US9320723B2, “Methods of treating thyroid eye disease” (University of Rochester, priority 2010, dated 2016)

Tests used:
orbital fibroblasts [1] = test: Immunofluorescence staining of HA with biotinylated HABP; format: cell-based, human; settings: 2 ng/ml TGF-β1, 24 hours
Method: Orbital fibroblasts were cultured in 8-chamber slides (BD REF354108) and fixed in room temperature 3% paraformaldehyde in PBS and stained with 1 μg/ml biotinylated HABP (Seikagaku, Cape Cod) followed by Cy3-conjugated streptavidin (Jackson laboratories, West Grove, Pa.). F-actin was stained with Phalloidin (Molecular Probes). In some cultures, orbital fibroblasts were treated with Streptomyces hyaluronidase prior to staining T cells were stained with an anti-CD3 monoclonal antibody (clone UCHT, SouthernBiotech, Birmingham, Ala.) followed by a goat anti-mouse antibody labeled with Alexa-488 (Molecular Probes). DAPI (10 μg/ml, Anaspec, San Jose, Calif.) was used for nuclear staining.

[2] = tested on: human peripheral blood T cells adhering to orbital fibroblasts; test: T cell adhesion assay; format: cell-based; settings: fibroblasts treated with 2 ng/ml TGF-β1, 24 hours
Method: Confluent orbital fibroblasts in a 96-well plate were serum starved and incubated with different concentrations of Pio or Rosi treated with or without 2 ng/ml TGF1 for 24 hours. In some cultures, orbital fibroblasts were treated with Streptomyces hyaluronidase (100 mU/ml at 37° C. for 1 hour) prior to the adhesion assay to deplete endogenous HA. Adhesion Test. Immediately before the adhesion assay, the conditioned medium of orbital fibroblasts was removed to eliminate treatments and secreted ECM. 1×10^5/well of Calcein AM labeled T cells were added to a 96-well plate with a confluent orbital fibroblast monolayer and allowed to adhere for 90 min at 4° C. as previously described. Plates were washed three times with the addition of 200 ul of PBS followed by plate inversion and gentle tapping to remove the wash solution. Fluorescence was measured with an excitation of 485 nm and detection of 535 nm, in a Varioskan Flash plate reader (Thermo Electron Corporation).

[3] = tested on: human orbital fibroblasts; test: Quantitation of secreted, pericellular and intracellular HA by ELISA, TGF-β1 treatment; format: cell-based
Method: Confluent monolayers of orbital fibroblasts were serum starved in 0.5% FBS RPMI-1640 medium for three days and pretreated with different concentrations of Pio or Rosi for 1 hour and then treated with or without 2 ng/ml TGF-β1 for 24 hours. After treatments, an aliquot of culture medium (secreted HA) was removed and centrifuged at 8,000×g at 4° C. for 5 minutes and the supernatant was saved for later analysis. The cells were washed twice with PBS and treated with 0.25% trypsin-EDTA solution (GIBCO, Invitrogen) at 37° C. for 5 minutes, the reaction was stopped by addition of culture medium and cell number was determined using a hemocytometer. The cells were then centrifuged and the supernatant was collected and incubated at 100° C. for 10 minutes to inactivate trypsin activity. This supernatant was saved for pericellular HA detection. The cell pellet was washed with PBS once and digested with 120 μg/ml proteinase K in 0.1% SDS/0.1 M Tris-HCl (pH 7.6) at 37° C. for 1 hour, and proteinase K was inactivated by incubation at 100° C. for 10 min. The cell lysate was centrifuged and supernatant analyzed for intracellular HA.
The amount of HA in each extract (secreted HA, pericellular HA and intracellular HA) was measured by ELISA based on the specific interaction of HA with HA binding protein (HABP). The HA detection kit was purchased from R&D system (Minneapolis, Minn.). Briefly, diluted samples were incubated in HABP-coated microwells, allowing HA present in samples to react with the immobilized HABP. After extensive washing, biotinylated HABP was added to the microwells to form complexes with bound HA. Following another round of washing, streptavidin conjugated horseradish peroxidase was added. After a brief incubation period and washing, chromogenic substrate was added and HA levels were determined using a Varioskan Flash plate reader (Thermo Fisher Scientific, Milford, Mass.). A fraction of the samples were pretreated with Streptomyces hyaluronidase (2 U/ml at 37° C. for 2 hour) before subjected to the ELISA assay as a negative control. Furthermore, an additional 50 ng/ml (final concentration) of free soluble HA was added to a fraction of the cell lysate samples to confirm that there are no inhibitory factors present and that the assays show the expected additivity when a known amount of exogenous HA is included.

[4] = tested on: human orbital fibroblasts; test: qRT-PCR of HAS mRNA after TGF-β1 with or without Pio or Rosi; format: cell-based; settings: 2 ng/ml TGF-β1, 6 hours
From the text: RNA was isolated from orbital fibroblast strains using the RNeasy Mini kit according to the manufacturer's protocol (Qiagen, Valencia, Calif.) and reverse transcripted to cDNA using iScript cDNA synthesis kit (Bio-Rad, Hercules, Calif.). Primers for human HAS1, 2, 3 and 7S as well as qRT-PCR method to detect relative abundance of mRNA are identified supra. Primers for human PPARγ1 (NM138711) and PPARγ 2 (NM015869) mRNA were 5′-AAAGAAGCCGA-CACTAAACC-3′ (SEQ ID NO:3) (sense), 5′-CTTCCATTACGG-AGAGATCC-3′ (SEQ ID NO:4) (antisense) and, 5′-GCGATTC-CTTCACTGATAC-3′ (SEQ ID NO:5) (sense), 5′-CTTCCATT-ACGGAGAGATCC-3′ (SEQ ID NO:6) (antisense), respectively.

HMC-1 cells = test: Measurement of PGD2 produced by mast cells (PGD2-MOX EIA); format: cell-based, human; settings: HQL-79 100 μM 60 minutes, then A23187
Method: HMC-1 cells (1×10^6/well) were seeded into 6-well plates and cultured in IMDM medium with 5% FBS in the absence or presence of HQL-79 (H-PGDS inhibitor, 100 μM) at 37° C. for 60 minutes. The cells were then washed and resuspended in RPMI 1640 medium with 0.5% FBS. After 2 hours incubation, the cells were stimulated with 10 μM calcium ionophore A23187 for 30 minutes. The culture media were collected and PGD2 in the supernatants was quantified by PGD2-MOX EIA kits (Cayman Chemical).

[5] = tested on: orbital fibroblasts co-cultured with HMC-1 cells; test: Co-culture of HMC-1 mast cells with orbital fibroblasts, HA ELISA; format: cell-based, human; settings: HMC-1 cells pretreated with HQL-79, ratio 20:1, compared to vehicle
Method: HMC-1 mast cells were allowed to proliferate in Iscove's Modified Dulbecco's Medium (IMDM) enriched with 5% FBS. Co-cultures were initiated by introducing HMC-1 cells to confluent cultures of fibroblasts as previously described (24). Mast cells were washed with RPMI-1640 medium (0.5% FBS) once before addition to the fibroblasts (1:1 ratio, unless otherwise specified). After 4 hours, the media and HMC-1 cells were removed by gently rinsing in PBS and fresh RPMI-1640 medium (0.5% FBS) was used to cover the cells. Alternatively, fibroblasts and mast cells were co-cultured in a transwell system (0.4 μm; Greiner Bio-one, New York, N.Y.) with fibroblasts being cultured on the bottom and the mast cells in the top chamber. The ratio of mast cells to fibroblasts was varied from 5:1 to 20:1.
Aliquots of culture medium were removed at indicated time points, centrifuged (5 min, 8,000×g at 4° C.) and HA levels quantified by enzyme-linked immunosorbent assay (ELISA) according to the manufacturer's protocol (R&D Systems). Briefly, samples were incubated in HA-binding protein (HABP)-coated microwells, allowing HA in samples to react with the immobilized HABP. […] After the last wash, the chromogenic substrate was added and HA levels were determined using a Varioskan Flash plate reader (Thermo Fisher Scientific, Milford, Mass.).

orbital fibroblasts [6] = test: Measurement of intracellular cAMP (TR-FRET immunoassay); format: cell-based, human; settings: PGD2 5 μM, BW245C 10 μM, up to 60 minutes
Method: cAMP levels were quantified using a time-resolved fluorescence resonance energy transfer (TR-FRET) immunoassay from Perkin Elmer (Waltham, Mass.) according to the manufacturer's protocol. Briefly, orbital fibroblasts were detached with a non-enzymatic cell dissociation solution (Versene, Invitrogen) and re-suspended in Stimulation Buffer (pH 7.4; 1×HBSS buffer containing 5 mmol/L HEPES buffer and 0.01%-0.1% BSA) containing 0.5 mM IBMX and labeled with the Alexa Fluor® 647-labeled anti-cAMP antibody. Finally, the cells were incubated with drugs at the indicated times. Following addition of the detection buffer, the amount of cAMP signal was measured.

[7] = tested on: orbital fibroblast strains OF1 and OF2; test: qRT-PCR of hyaluronidase mRNA (HYAL1-3); format: cell-based, human; settings: 5 μM PGD2, 4 hours
Method: (§1) RNA was isolated from orbital fibroblasts or T cells using an RNeasy Mini kit (Qiagen). RNA was reverse transcribed to cDNA using iScript cDNA synthesis kit (Bio-Rad) and diluted 5-fold in RNase-free H2O. Forward and reverse primers for each gene are shown in Table I. RT-PCR: The PCR reaction was performed using Qiagen Fast Cycling PCR kit for 30 cycles in a Bio-Rad thermal cycler. The PCR product was visualized on a 5% acrylamide gel stained with ethidium bromide. Amplifications without reverse transcriptase were carried out as negative controls. qRT-PCR: qRT-PCR was performed in a Bio-Rad iCycler containing B-R SYBR Green SuperMix for IQ (Quanta Biosciences, Gaithersburg, Md.). Efficiency of the amplification was determined to be >90%.
(§2) Amplification of 7S ribosomal RNA was carried out for each cDNA (in triplicate) for normalization. Threshold cycle number (Ct) of amplification in each sample was determined by Bio-Rad software and the relative mRNA abundance was calculated as the Ct for amplification of a gene-specific cDNA minus average Ct for 7S, expressed as a power of 2; i.e., 2^ΔCt.

[8] = tested on: human orbital fibroblasts; test: qRT-PCR of HAS mRNA after PGD2 or BW245C; format: cell-based; settings: 5 μM PGD2, 2 hours
Method: as §1, §2

[9] = tested on: human orbital fibroblasts; settings: previously reported (Feldon et al. 2006); cited from earlier work
[10] = tested on: human orbital fibroblasts; test: HA ELISA of culture medium of orbital fibroblasts treated with prostaglandins or drugs; format: cell-based; settings: 18 hours, strains OF1 and OF2
From the text: Orbital fibroblasts: Primary orbital fibroblasts were isolated from TED patients undergoing orbital decompression surgery. The protocols for orbital biopsy and blood sample, described below, were approved by the Internal Review Board and informed, written consent was obtained from all patients. […] Fibroblasts were characterized by their adherent morphology, expression of vimentin and types I and III collagen and absence of CD45, factor VIII or cytokeratin. Fibroblasts were used at the earliest passage possible (between passages 4 to 10). Human T cells: Lymphocytes were isolated from 60 ml of peripheral blood obtained during orbital decompression surgery. Whole blood was separated over a Ficoll-Paque Plus Gradient (Amersham Biosciences, Piscataway, N.J.) to obtain peripheral blood mononuclear cells. T cells were enriched using CD3/CD28 T cell Expander beads (Invitogen). […] After that, 50 U/ml of recombinant interleukin-2 (rIL-2) was added to the culture and incubated for another 2-3 days. On day 5, cells were diluted to a concentration of 0.5×10^6 cells/ml in medium containing 50 U/ml rIL-2 and incubated for an additional 3-7 days. Cellular purity was assessed using an anti-CD3-PE antibody (BD Biosciences, San Jose, Calif.) and analyzed on a FACSCalibur flow cytometer (BD Biosciences).
Aliquots of culture medium were removed at indicated time points, centrifuged (5 min, 8,000×g at 4° C.) and HA levels quantified by enzyme-linked immunosorbent assay (ELISA) according to the manufacturer's protocol (R&D Systems). Briefly, samples were incubated in HA-binding protein (HABP)-coated microwells, allowing HA in samples to react with the immobilized HABP. After the removal of unbound molecules by washing, biotinylated-HABP was added to the microwells. Following a second wash, streptavidin-conjugated to horseradish peroxidase was added. After the last wash, the chromogenic substrate was added and HA levels were determined using a Varioskan Flash plate reader (Thermo Fisher Scientific, Milford, Mass.).

[11] = tested on: human orbital fibroblasts (OF1 and OF2); test: Agarose gel electrophoresis of HA in conditioned media; format: cell-based; settings: 5 μM PGD2, 18 hours
Method: Fibroblasts were cultured to confluence in 10 cm^2 dishes in RPMI containing 10% FBS, followed by RPMI with 2% FBS for 3 days. Fibroblasts were then treated with 5 μM PGD2 or control (DMSO) for 18 hours. Cell culture supernatant was centrifuged (5 min at 8,000×g at 4° C.) and half of the sample digested with 1 TRU/ml Streptomyces hyaluronidase (Sigma) at 37° C. for 4 hours; the remainder of the sample was mock-digested. Following digestion with proteinase K (120 μg/ml) (Qiagen, Valencia, Calif.) at 37° C. for 4 hours, the samples were concentrated using Vivaspin 10,000 Da cut-off ultrafiltration spin column (Sartorius Stedim Biotech, Goettingen, Germany), washed with PBS and analyzed by 1% agarose electrophoresis. Select-HA HiLadder (Hyalose LLC, Oklahoma City, Okla.) and blue dextran (Sigma; molecular weight 2×10^6 Da) were also run as standards. The gel was stained with 0.005% Stains-All (Sigma) in 50% ethanol overnight at room temperature before being scanned on an HP scanner.

[12] = 2 ng/ml TGF-β1, 24 hours, strain #1, compared to vehicle

Compound: TGF-β1: Recombinant human TGF-β1 purchased from Calbiochem
- HA staining (immunofluorescence) (orbital fibroblasts [1]): HA staining is more pronounced and forms microvillus-like protrusions
- adhesion of T cells to orbital fibroblasts [2]: significantly increased compared to untreated control fibroblasts
- intracellular HA levels ([3]; 2 ng/ml TGF-β1, 24 hours): had no effect on intracellular HA levels
- increase of pericellular HA levels [3, 12]: 8.34±1.33 fold
- increase of secreted HA levels [3, 12]: 12.16±0.15 fold
- share of newly synthesized HA secreted into the ECM ([3]; TGF-β1 mediated): about 70%
- secreted HA compared with pericellular HA ([3]; fibroblasts treated with TGF-β1, strain #1): 2.31±0.36 fold
- HAS3 mRNA levels [4]: remained unchanged
- increase of HAS1 mRNA levels [4]: about 50 fold
- increase of HAS2 mRNA levels [4]: ~6 fold

Compound: c1ccc(C(OC2CCN(CCCc3nnn[nH]3)CC2)c2ccccc2)cc1 [HQL-79, 4-benzhydryloxy-1-[3-(1H-tetrazol-5-yl)-propyl]-piperidine]
- level of PGD2 in activated HMC-1 cells (HMC-1 cells): significantly reduced the level of PGD2 in activated HMC-1 cells
- production of HA by orbital fibroblasts in transwell co-culture [5]: significantly attenuated the production of HA by orbital fibroblasts

Compound: CCCCC[C@H](O)/C=C/[C@H]1C(=O)C[C@H](O)[C@@H]1C/C=C\CCCC(=O)O [PGD2]
- intracellular cAMP production (orbital fibroblasts [6]): significantly increased intracellular cAMP production within 15 to 30 minutes
- HYAL1, HYAL2 and HYAL3 mRNA ([7]; strain OF1): significant induction in HYAL1, HYAL2 and HYAL3 mRNA
- hyaluronidase mRNA expression ([7]; strain OF2): failed to significantly increase hyaluronidase mRNA expression
- HAS1, HAS2 and HAS3 mRNA [8]: the mRNA for all three HAS isoforms increased significantly
- increase in HAS1 mRNA ([8]; compared to time 0): 2807±213
- adipogenesis in human orbital fibroblasts [9]: induce adipogenesis
- concentration yielding the largest induction of HA [10]: 5 µM
- HA synthesis (HA ELISA) ([10]; increasing concentrations): significantly increased HA synthesis by both fibroblast strains in a dose-dependant manner
- HA in conditioned media (agarose gel) [11]: increased HA compared with vehicle
